# According to patent US11446287B2, “Compounds and methods for EP300 or CBP modulation and indications therefor” (Opna Immuno-Oncology SA, priority 2019, dated 2022):
# Target: T1, Recombinant human CBP containing the bromodomain (CBP-BD (1043-1159)) (Homo sapiens, UniProt Q92793)
# T1 construct: Recombinant human CBP bromodomain (CBP-BD (1043-1159)); made in house; host or cells: E. coli BL21-CodonPlus (DE3), modified pET vector
# Experiment: CBP Alphascreen binding assay
# Details: read-out: CREBBP (CBP) IC50
# Procedure, shortened: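 Buffer: 50 mM HEPES pH 7.5, 50 mM NaCl, 0.01% BSA, 0.01% Triton X-100, 2 mM DTT. The signal was normalised to plate controls and fitted with a four-parameter curve to give IC50.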
# T1 sequence (Q92793 1081-1197): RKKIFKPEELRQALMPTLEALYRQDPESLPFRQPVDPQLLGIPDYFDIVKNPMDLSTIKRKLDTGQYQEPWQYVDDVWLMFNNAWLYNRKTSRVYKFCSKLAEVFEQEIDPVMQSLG
row,Structure (SMILES),IC50 [nM]
1,"Cc1noc(C)c1-c1cnc2c(c1)c(-c1ccc(C(=O)O)cc1OC(F)(F)F)cn2-c1ccccc1C1CC1 [P-0308, 4-(1-(2-cyclopropylphenyl)-5-(3,5-dimethylisoxazol-4-yl)-1H-pyrrolo[2,3-b]pyridin-3-yl)-3-(trifluoromethoxy)benzoic acid]",0.1 to 1000
2,"Cc1noc(C)c1-c1cnc2c(c1)c(-c1ccc(C(=O)O)cc1OC(F)(F)F)cn2-c1ccccc1C#N [P-0309, 4-(1-(2-cyanophenyl)-5-(3,5-dimethylisoxazol-4-yl)-1H-pyrrolo[2,3-b]pyridin-3-yl)-3-(trifluoromethoxy)benzoic acid]",0.1 to 1000
3,"Cc1cc(C#N)ccc1-n1cc(-c2ccc(C(=O)O)cc2OC(F)(F)F)c2cc(-c3c(C)noc3C)cnc21 [P-0310, 4-(1-(4-cyano-2-methylphenyl)-5-(3,5-dimethylisoxazol-4-yl)-1H-pyrrolo[2,3-b]pyridin-3-yl)-3-(trifluoromethoxy)benzoic acid]",0.1 to 1000
4,"COc1ccc(-n2cc(-c3ccc(C(=O)O)cc3OC(F)(F)F)c3cc(-c4c(C)noc4C)cnc32)c(F)c1 [P-0311, 4-(5-(3,5-dimethylisoxazol-4-yl)-1-(2-fluoro-4-methoxyphenyl)-1H-pyrrolo[2,3-b]pyridin-3-yl)-3-(trifluoromethoxy)benzoic acid]",0.1 to 1000
5,"C=C(C)c1ccccc1-n1cc(-c2ccc(C(=O)O)cc2OC(F)(F)F)c2cc(-c3c(C)noc3C)cnc21 [P-0312, 4-(5-(3,5-dimethylisoxazol-4-yl)-1-(2-(prop-1-en-2-yl)phenyl)-1H-pyrrolo[2,3-b]pyridin-3-yl)-3-(trifluoromethoxy)benzoic acid]",0.1 to 1000
6,"Cc1noc(C)c1-c1cnc2c(c1)c(-c1ccc(C(=O)O)cc1OC(F)(F)F)cn2-c1ccc(C#N)cc1 [P-0313, 4-(1-(4-cyanophenyl)-5-(3,5-dimethylisoxazol-4-yl)-1H-pyrrolo[2,3-b]pyridin-3-yl)-3-(trifluoromethoxy)benzoic acid]",0.1 to 1000
7,"Cc1noc(C)c1-c1cnc2c(c1)c(-c1ccc(C(=O)O)cc1OC(F)(F)F)cn2-c1ccc(C(C)(C)O)cc1 [P-0314, 4-(5-(3,5-dimethylisoxazol-4-yl)-1-(4-(2-hydroxypropan-2-yl)phenyl)-1H-pyrrolo[2,3-b]pyridin-3-yl)-3-(trifluoromethoxy)benzoic acid]",0.1 to 1000
8,"Cc1noc(C)c1-c1cnc2c(c1)c(-c1ccc(C(=O)O)cc1OC(F)(F)F)cn2-c1ccsc1 [P-0315, 4-(5-(3,5-dimethylisoxazol-4-yl)-1-(thiophen-3-yl)-1H-pyrrolo[2,3-b]pyridin-3-yl)-3-(trifluoromethoxy)benzoic acid]",0.1 to 1000
